Residue numbers refer to the chain shown, from its start. Where two headings read alike, the source gives them in different places.
How the values were obtained:
[1] = biological target: T1, LOXL2 (Homo sapiens, UniProt Q9Y4K0); assay: LOX isoform activity assay (ROS Glo), LOXL2; type: biochemical
T1 construct: purchased R&D Systems/Bio-techne
T1 sequence (Q9Y4K0 26-774): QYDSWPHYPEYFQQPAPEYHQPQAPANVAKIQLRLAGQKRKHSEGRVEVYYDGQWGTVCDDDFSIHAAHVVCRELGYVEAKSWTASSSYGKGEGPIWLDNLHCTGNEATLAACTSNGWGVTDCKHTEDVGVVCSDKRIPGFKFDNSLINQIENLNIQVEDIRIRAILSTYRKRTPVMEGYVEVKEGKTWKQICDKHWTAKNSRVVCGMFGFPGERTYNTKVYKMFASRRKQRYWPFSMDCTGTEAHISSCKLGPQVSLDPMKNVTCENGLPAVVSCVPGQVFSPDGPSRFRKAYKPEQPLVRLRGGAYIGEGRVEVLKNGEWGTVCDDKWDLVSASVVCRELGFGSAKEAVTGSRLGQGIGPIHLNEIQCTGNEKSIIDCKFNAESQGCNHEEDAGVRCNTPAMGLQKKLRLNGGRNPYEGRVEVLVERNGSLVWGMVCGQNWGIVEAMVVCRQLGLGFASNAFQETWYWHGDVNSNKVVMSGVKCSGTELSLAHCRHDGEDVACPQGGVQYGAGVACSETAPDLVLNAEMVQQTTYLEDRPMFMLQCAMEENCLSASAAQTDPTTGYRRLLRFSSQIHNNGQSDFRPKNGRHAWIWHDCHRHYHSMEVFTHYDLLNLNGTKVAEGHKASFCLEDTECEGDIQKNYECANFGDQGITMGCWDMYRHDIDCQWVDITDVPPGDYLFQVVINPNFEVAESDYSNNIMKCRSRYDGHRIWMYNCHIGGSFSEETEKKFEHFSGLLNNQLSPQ
Procedure: (§1) LOX was extracted from pig skin by previously described methods (Shackleton and Hulmes, 1990). LOXL2 and LOXL3 were obtained from R&D Systems/Bio-techne. The Promega ROS Glo assay kit (G8821) was used to assess enzyme activity. Overall, test compound was added to either 384 well assay plates (Greiner) using a Labcyte Echo™ Acoustic Handler or to 96 well plates for a final assay concentration of 100, 30, 10, 3, 1, 0.3, 0.1, 0.03, 0.01 and 0.003 μM final assay concentration. Enzymes were diluted according to specific pre-determined activity in assay buffer (100 mM CHES, pH 9, 0.05% (w/v) pluronic F-127, 0.5% (w/v) BSA, 1 mM MgCl2, 1 M urea, 100 mM NaCl) and added to the plate. For LOXL2, the mixture was incubated for 20 min, 1 h or 20 h; for LOX and LOXL3, incubation time was 1 h. Cadaverine and H2O2 substrate were then added to each well (final assay concentration 19.56 mM and 25 μM respectively) and the plates were incubated for 1.5 h (for LOX) or 1 h (for LOXL2 and LOXL3) at room temperature. Finally, luciferin detection reagent was added and plates were incubated for 20 min at room temperature, protected from light. Luminescence was measured using a BMG LABTECH PHERAstar FS reader and resulting IC50 values were calculated using GraphPad Prism software.
In another setting, LOXL2 enzyme was diluted according to specific pre-determined activity in assay buffer (100 mM CHES, pH 9, 0.05% (w/v) pluronic F-127, 0.5% (w/v) BSA, 1 mM MgCl2, 1 M urea, 100 mM NaCl). Overall, 0.5 μl test compound was added to 40 μl assay buffer+LOXL2 at 100, 30, 10, 3, 1, 0.3, 0.1, 0.03, 0.01 and 0.003 μM (final concentration) in a 96-well white polystyrene, flat bottom plates (Fisher) and incubated for the indicated time at room temperature. 10 μl of assay buffer containing 97.8 mM cadaverine and 125 μM H2O2 substrate (final assay concentration 19.56 mM and 25 μM respectively) were added to each well and plates were incubated for 1 h at room temperature. Finally, 50 μl per well luciferin detection reagent was added and plates were incubated for 20 min at room temperature, protected from light. Luminescence was measured with an integration time of 500 ms per well using a SpectaMax M5 plate reader and resulting IC50 values were calculated using GraphPad Prism software.

[2] = biological target: T2, monoamine oxidase A (MAO-A) (Homo sapiens, UniProt P21397); assay: Amine oxidase activity assay (MAO-Glo), MAO-A; type: biochemical
T2 construct: purchased Promega V1452
T2 sequence (P21397 1-527): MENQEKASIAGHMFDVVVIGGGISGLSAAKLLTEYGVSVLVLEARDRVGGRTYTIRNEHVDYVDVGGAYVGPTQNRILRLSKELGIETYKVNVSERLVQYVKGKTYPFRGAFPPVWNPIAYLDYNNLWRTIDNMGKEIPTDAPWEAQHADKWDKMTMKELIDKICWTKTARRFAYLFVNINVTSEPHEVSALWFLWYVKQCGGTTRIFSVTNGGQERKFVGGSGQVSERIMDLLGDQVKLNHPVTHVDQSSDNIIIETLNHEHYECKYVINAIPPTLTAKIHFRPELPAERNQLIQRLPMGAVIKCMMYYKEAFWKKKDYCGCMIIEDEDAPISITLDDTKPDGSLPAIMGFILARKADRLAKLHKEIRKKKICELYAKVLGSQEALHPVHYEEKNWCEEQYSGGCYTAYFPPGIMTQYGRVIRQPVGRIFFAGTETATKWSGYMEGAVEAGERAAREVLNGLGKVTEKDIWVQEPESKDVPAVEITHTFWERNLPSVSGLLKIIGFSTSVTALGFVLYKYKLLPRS
Procedure: (§2) The Promega MAO-Glo assay kit (V1402) was used to assess monoamine oxidase A (MAO-A) and monoamine oxidase B (MAO-B) activity. MAO substrate was prepared at 80 μM with the specific MAO-A/B reaction buffer. Overall, 0.5 μl test compound was added to 25 μl MAO substrate at 100, 30, 10, 3, 1, 0.3, 0.1, 0.03, 0.01 and 0.003 μM (final concentration) in a 96-well white, flat bottom plate. Overall, 25 μl of 1:520 dilution of MAO-A enzyme (Promega, V1452) or 25 μl of 1:52 dilution of MAO-B enzyme (Sigma, M7441) in specific MAO-A/B reaction buffer was added to each well (enzyme prepared at 2×final concentration) and plates were incubated for 1 h at room temperature. Finally, 50 μl per well luciferin detection reagent was added and plates were incubated for 20 min at room temperature, protected from light. Luminescence was measured with an integration time of 500 ms per well using a SpectaMax M5 plate reader and resulting IC50 values were calculated using GraphPad Prism software.
(§3) In another setting, the DAO and MAO assays were performed in 384-well plates (Greiner) and test compound was added using a Labcyte Echo™ Acoustic Handler for the same final concentrations as in the 96-well setting. Luminescence was measured with BMG LABTECH PHERAstar FS plate reader.

[3] = biological target: T3, monoamine oxidase B (MAO-B) (Homo sapiens, UniProt P27338); assay: Amine oxidase activity assay (MAO-Glo), MAO-B; type: biochemical
T3 construct: purchased Sigma M7441
T3 sequence (P27338 1-520): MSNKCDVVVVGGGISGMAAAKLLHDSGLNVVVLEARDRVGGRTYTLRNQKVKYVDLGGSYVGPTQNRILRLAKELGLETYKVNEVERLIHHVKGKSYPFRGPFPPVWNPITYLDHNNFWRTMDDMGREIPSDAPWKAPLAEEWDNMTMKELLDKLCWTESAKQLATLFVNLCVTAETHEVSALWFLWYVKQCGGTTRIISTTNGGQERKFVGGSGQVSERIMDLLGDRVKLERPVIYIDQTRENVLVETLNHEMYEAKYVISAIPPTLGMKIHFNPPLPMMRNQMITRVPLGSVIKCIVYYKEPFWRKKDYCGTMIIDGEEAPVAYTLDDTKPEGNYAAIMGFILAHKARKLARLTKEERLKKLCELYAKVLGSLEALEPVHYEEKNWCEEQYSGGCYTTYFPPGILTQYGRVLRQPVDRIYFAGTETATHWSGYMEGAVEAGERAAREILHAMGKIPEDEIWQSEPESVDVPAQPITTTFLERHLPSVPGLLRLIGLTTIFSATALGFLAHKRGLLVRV
Procedure: as §2, §3

[4] = biological target: T4, LOX (Mus musculus, UniProt P28301); assay: LOX activity in cysts assay (roGFP2 LOX biosensor in MDCK cysts); type: cell-based; details: LOX, DMSO = 0%, BAPN 1 mM = 100% inhibition
T4 construct: Full length LOX cDNA was then PCR cloned into pEGFP-N1 (Clonetech), or biosensor vector proGFP2—N1; expressed in transfected cells; host or cells: MDCK cells grown as cysts on Matrigel
T4 sequence (P28301 163-411): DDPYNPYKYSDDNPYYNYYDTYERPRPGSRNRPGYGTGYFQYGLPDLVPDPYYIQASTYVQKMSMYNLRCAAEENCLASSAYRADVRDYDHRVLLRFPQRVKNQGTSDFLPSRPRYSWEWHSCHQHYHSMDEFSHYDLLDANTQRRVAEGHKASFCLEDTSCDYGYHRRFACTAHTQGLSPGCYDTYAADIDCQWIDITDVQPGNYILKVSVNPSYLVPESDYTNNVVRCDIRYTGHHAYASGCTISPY
Procedure: All cell lines used in this study were purchased from American Type Culture Collection (ATCC). Mycoplasma contamination was routinely monitored by PCR. Cells used were not found to be Mycoplasma positive. MDCK cell lines were cultured in Dulbecco's Modified Eagle Medium (DMEM) supplemented with 10% fetal bovine serum (FBS) and 1% Penicillin Streptomycin solution (Pen Strep). For GFP constructs transfection in MDCK cells, lipofectamine 3000 was used according to manufactures protocols. Cells were either selected with G418 (Life Technologies) at 5 mg/ml. All cell culture reagents were purchased from Life Technologies.
To produce MDCK cysts, cells were cultured on Matrigel (Corning) with 2% Matrigel supplemented in DMEM with 10% FBS. Cysts were allowed to form for 10 days before subsequent studies.
Mouse LOX cDNA was purchased from OriGene. Full length LOX cDNA was then PCR cloned into pEGFP-N1 (Clonetech), or biosensor vector proGFP2—N1 (Hanson, 2004) using the following primers, […] (forward primer) and […] (reverse primer). For the insertion into pEGFP-N1 or proGFP2—N1, Nhel and Xhol restriction sites were added to forward and reverse primers accordingly. Mutant LOX constructs were made using QuickChange II site-directed mutagenesis kit (Agilent Technologies) following manufacture's protocol using LOX-GFP as template. To generate, roGFP2 versions of LOX mutant constructs, LOX mutant cDNA was transferred from pEGFP-N1 to proGFP2—N1 using Nhel and Xhol.
All photomicrographs were taken with a Leica TCS SP8 X confocal system. For LOX biosensor imaging, live MDCK cysts were used. The oxidised biosensor was excited using a 405 nm laser, while the reduced biosensor was excited with a 488 nm laser. Emission of the biosensor was recorded at 500 nm-530 nm range using sequential scans. Ratio images were generated following a published protocol {Kardash, 2011 #376}. Note, while the published protocol generates YFP/CFP ratio images, we used it to generate Oxidised/Reduced (roGFP2 ratio) ratio images. The roGFP2 ratio at the basal surface of MDCK cysts was used to indicate LOX inhibition. LOX inhibitors were added 30 min prior to imaging.
For clarity, readout for DMSO treated cysts represents 0% inhibition (no inhibition) and readout for BAPN at 1 mM is used as 100% inhibition (full inhibition).

[5] = biological target: T5, LOX (Sus scrofa, UniProt P45845); assay: LOX isoform activity assay (ROS Glo), LOX; type: biochemical, pig; details: 1 h incubation with enzyme
T5 construct: LOX was extracted from pig skin by previously described methods; from tissue; host or cells: pig skin
T5 sequence (P45845 1-249): T4 sequence (P28301 163-411) with D20X, T21X, Y22X, N31Y, S80T, N142S, A188N, Q202K, T224S, D231E
Procedure: as §1

[6] = 20 hr incubation with enzyme; read-out: LOXL2 IC50 c) 20 hr

| Compound | IC50 [2] [µM] | IC50 [3] [µM] | IC50 [1, 6] [µM] | other results |
| --- | --- | --- | --- | --- |
| NCCS(=O)(=O)CCN1CCCN(c2ccc(N3CCS(=O)(=O)CC3)cc2)CC1 [Example 3, 4-(4-(4-(2-((2-aminoethyl)sulfonyl)ethyl)-1,4-diazepan-1-yl)phenyl) thiomorpholine-1,1-dioxide] | > 100 | > 100 |  | IC50 ([1]; 20 min incubation with enzyme; read-out: LOXL2 IC50 a) 20 min): 8.1 µM |
| CCOc1ccc(N2C[C@H]3CN(C(=O)C(CC(C)C)S(=O)(=O)CCN)C[C@@H]2C(C)(C)C3)cc1 (stereo partly drawn) [Example 40, 2-((2-aminoethyl)sulfonyl)-1-((1S,5S)-6-(4-ethoxyphenyl)-9,9-dimethyl-3,6-diazabicyclo[3.2.2]nonan-3-yl)-4-methylpentan-1-one] |  |  |  | inhibition at 10 µM ([4]; 10 uM, inhibitor added 30 min prior to imaging, read-out: Cyst LOX @ 10 uM (% inhibition)): 79%; IC50 ([1]; 1 hr incubation with enzyme; read-out: LOXL2 IC50 b) 1 hr): 1.1 µM |
| CCOc1ccc(N2C[C@@H]3C[C@H]2CN3C(=O)C(F)S(=O)(=O)CCN)cc1 (mixture of isomers) [Example 16, 2-((2-aminoethyl)-sulfonyl)-1-((1S,4S)-5-(4-ethoxyphenyl)-2,5-diazabicyclo-[2.2.1]heptan-2-yl)-2-fluoroethan-1-one] |  |  | 0.14 | inhibition at 2.5 µM ([4]; 2.5 uM (stated in cell), read-out: Cyst LOX (% inhibition) @ 2.5 uM): 73% |
| CCOc1ccc(N2C[C@H]3CN(C(=O)c4cccc(S(=O)(=O)CCN)c4)C[C@@H]2C(C)(C)C3)cc1 [Example 32, (3-((2-aminoethyl)sulfonyl)phenyl)((1S,5S)-6-(4-ethoxyphenyl)-9,9-dimethyl-3,6-diazabicyclo[3.2.2]nonan-3-yl)methanone] | > 100 | > 100 | 3 | IC50 [5]: 23 µM |
